Consider eleven molecules from publication PMC10092094 (Chemmedchem, 2022).

The target of test [1] is T1, OGG1 (Homo sapiens, UniProt O15527). As to the kind of experiment: biochemical.
The target of test [2] is T1, OGG1. Kind of test: Differential scanning fluorimetry. In kind it is binding.
Setting [3] is: IC50 (CI95), biochemical inhibition, confidence interval 95 in parentheses.

T1 sequence (O15527 whole entry): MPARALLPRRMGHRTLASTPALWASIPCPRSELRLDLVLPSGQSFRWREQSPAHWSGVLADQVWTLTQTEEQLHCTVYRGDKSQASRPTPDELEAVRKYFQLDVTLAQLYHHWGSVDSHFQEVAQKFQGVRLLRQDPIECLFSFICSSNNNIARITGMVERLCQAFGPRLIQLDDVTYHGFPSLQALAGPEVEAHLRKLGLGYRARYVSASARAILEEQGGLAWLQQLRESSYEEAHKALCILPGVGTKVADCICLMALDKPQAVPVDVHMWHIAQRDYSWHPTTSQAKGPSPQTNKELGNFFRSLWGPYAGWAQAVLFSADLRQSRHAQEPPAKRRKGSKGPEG

What is called IC50 is the midpoint of a concentration-inhibition curve. In the case of `COc1cccc2c1[nH]c(=O)n2C1CCN(C(=O)Nc2ccc(I)cc2)CC1` [Compound 27, 4‐(4‐methoxy‐2‐oxo‐2,3‐dihydro‐1H‐1,3‐benzodiazol‐1‐yl)‐N‐(4‐iodophenyl)piperidine‐1‐carboxamide], the IC50 at OGG1 [1] (setting [3]) came out at 910 nM. Moreover, at OGG1 [2], the “DSF stabilization (ΔT)” value came out at 4.2 K.

For the molecule `O=C(Nc1ccc(Cl)cc1)N1CCC(n2c(=O)[nH]c3c(Br)cccc32)CC1` [Compound 43, 4‐(4‐bromo‐2‐oxo‐2,3‐dihydro‐1H‐1,3‐benzodiazol‐1‐yl)‐N‐(4‐chlorophenyl)piperidine‐1‐carboxamide], the IC50 on OGG1 [1] (setting [3]) came out at 350 nM. For the same molecule, the “DSF stabilization (ΔT)” value at OGG1 [2] worked out at 4.2 K.

Regarding `O=C(Nc1ccc(Br)cc1)N1CCC(n2c(=O)[nH]c3c(Br)cccc32)CC1` [Compound 44, 4‐(4‐bromo‐2‐oxo‐2,3‐dihydro‐1H‐1,3‐benzodiazol‐1‐yl)‐N‐(4‐bromophenyl)piperidine‐1‐carboxamide], the IC50 on OGG1 [1] (setting [3]) was found to be 190 nM. In addition, at OGG1 [2], the “DSF stabilization (ΔT)” value was 4.2 K.

As for `Cc1ccc(NC(=O)N2CCC(n3c(=O)[nH]c4c(Br)cccc43)CC2)cc1` [Compound 45, 4‐(4‐bromo‐2‐oxo‐2,3‐dihydro‐1H‐1,3‐benzodiazol‐1‐yl)‐N‐(4‐methylphenyl)piperidine‐1‐carboxamide], the IC50 on OGG1 [1] (setting [3]) was found to be 2100 nM. Besides, the “DSF stabilization (ΔT)” value at OGG1 [2] stood at 5.1 K.

Turning to `CC(C)(C)c1ccc(NC(=O)N2CCC(n3c(=O)[nH]c4c(Br)cccc43)CC2)cc1` [Compound 46, 4‐(4‐bromo‐2‐oxo‐2,3‐dihydro‐1H‐1,3‐benzodiazol‐1‐yl)‐N‐(4‐tert‐butylphenyl)piperidine‐1‐carboxamide], at OGG1 [1] (setting [3]), the IC50 was found to be 46000 nM. Moreover, the “DSF stabilization (ΔT)” value at OGG1 [2] stood at 0.0 K.

Regarding `COc1ccc(NC(=O)N2CCC(n3c(=O)[nH]c4c(Br)cccc43)CC2)cc1` [Compound 47, 4‐(4‐bromo‐2‐oxo‐2,3‐dihydro‐1H‐1,3‐benzodiazol‐1‐yl)‐N‐(4‐methoxyphenyl)piperidine‐1‐carboxamide], on OGG1 [1] (IC50, biochemical inhibition, single replicate), the IC50 came out at 3100 nM. For the same molecule, the “DSF stabilization (ΔT)” value at OGG1 [2] amounted to 4.1 K.

For the molecule `O=C(Nc1ccc(C(F)(F)F)cc1)N1CCC(n2c(=O)[nH]c3c(Br)cccc32)CC1` [Compound 49, 4‐(4‐bromo‐2‐oxo‐2,3‐dihydro‐1H‐1,3‐benzodiazol‐1‐yl)‐N‐[4‐(trifluoromethyl)phenyl]piperidine‐1‐carboxamide], the IC50 on OGG1 [1] (setting [3]) came out at 1600 nM. Besides, the “DSF stabilization (ΔT)” value on OGG1 [2] is given as 1.6 K.

As for `O=C(Nc1ccc(Cl)c(Cl)c1)N1CCC(n2c(=O)[nH]c3c(Br)cccc32)CC1` [Compound 53, 4‐(4‐bromo‐2‐oxo‐2,3‐dihydro‐1H‐1,3‐benzodiazol‐1‐yl)‐N‐(3,4‐dichlorophenyl)piperidine‐1‐carboxamide], the IC50 on OGG1 [1] (setting [3]) was found to be 440 nM. Moreover, at OGG1 [2], the “DSF stabilization (ΔT)” value is reported as 3.1 K.

As to `COc1cc(NC(=O)N2CCC(n3c(=O)[nH]c4c(Br)cccc43)CC2)ccc1Cl` [Compound 54, 4‐(4‐bromo‐2‐oxo‐2,3‐dihydro‐1H‐1,3‐benzodiazol‐1‐yl)‐N‐(4‐chloro‐3‐methoxyphenyl)piperidine‐1‐carboxamide], the IC50 at OGG1 [1] (setting [3]) is 300 nM. For the same molecule, the “DSF stabilization (ΔT)” value at OGG1 [2] is given as 1.9 K.

Turning to `COc1cc(NC(=O)N2CCC(n3c(=O)[nH]c4c(Br)cccc43)CC2)ccc1C` [Compound 55, 4‐(4‐bromo‐2‐oxo‐2,3‐dihydro‐1H‐1,3‐benzodiazol‐1‐yl)‐N‐(3‐methoxy‐4‐methylphenyl)piperidine‐1‐carboxamide], on OGG1 [1] (setting [3]), the IC50 turned out to be 200 nM. Further, on OGG1 [2], the “DSF stabilization (ΔT)” value is listed as 1.8 K.

As to `COc1ccc(NC(=O)N2CCC(n3c(=O)[nH]c4c(Br)cccc43)CC2)cc1OC` [Compound 56, 4‐(4‐bromo‐2‐oxo‐2,3‐dihydro‐1H‐1,3‐benzodiazol‐1‐yl)‐N‐(3,4‐dimethoxyphenyl)piperidine‐1‐carboxamide], the IC50 on OGG1 [1] (setting [3]) turned out to be 4400 nM. Also, the “DSF stabilization (ΔT)” value on OGG1 [2] stood at 5.1 K.
